# Results taken from patent US7880021B2, “Compounds and kits for the detection and the quantification of cell apoptosis” (Centre National de la Recherche Scientifique (CNRS), priority 2005, dated 2011).
# Assays:
# L 929 cells = assay: Confocal fluorescence imaging of L 929 cells stained with 3-HF probes; type: cell-based
# Protocol: FIG. 1: (a) Formula and location of 3-HF probes of the prior art F and F2N8 and of the probe of the invention F2N12S in phospholipid bilayers (a). Confocal fluorescence images of L 929 cells stained with probes F (b), F2N8 (c) and F2N12S (d). All images were obtained by collecting fluorescence in the 585-700 nm wavelength range 10 min after probe addition. Scale bar, 10 μm (b).
# (§1) The cells were washed twice by HBSS before each experiment to eliminate fetal bovine serum. In sorting experiments, cells were resuspended in the binding buffer and labeled with the annexin V-FITC kit. For fluorescence measurements with the probe of the invention F2N12S (fluorometry, flow cytometry and confocal microscopy), cells were resuspended in HBSS with 0.1 μM F2N12S. Then, the cell suspension was placed in a shaker bath for 10 min in the incubator. The staining pattern of the cells was checked with a Confocal Imaging System MRC-1024 (BioRad) to ascertain that fluorescence originates from the plasma membrane.
# For collecting cell images, a Laser Scanning Confocal Imaging System MRC-1024 (Bio-Rad) was used. […] Collected images were analyzed by the Amira 3.0 software.
# Confocal laser microscopy have been performed on adherent L 929 cells stained with these first generation molecules (FIG. 1.b, c). The obtained fluorescence images reveal a rapid penetration of these dyes inside the cells. […]
# CEM T cells = assay: Two-color confocal ratiometric imaging of normal and apoptotic cells; type: cell-based, human
# Protocol: FIG. 5: Confocal fluorescence ratiometric images of CEM cells stained with F2N12S: normal cells (a); apoptotic cells, obtained by FITC-annexin based sorting of cells treated with actinomycin (b); and actinomycin-treated without cell sorting (c). The images were recorded after a 10 min incubation of the probe with the cells. Scale bar, 10 μm.
# Human lymphoid CEM T cells were cultured in X-vivo 15 medium (Cambrex, France) at 37° C. in humidified 5% CO2 atmosphere. Cell viability was checked by trypan blue exclusion. Cells were seeded at 5×10^5 cells/ml in the presence or absence of actinomycin D (0.5 μg/ml) for 18 h. Cells were pelleted by centrifugation at 1500 rpm for 5 min and resuspended at 1×10^6 cells/ml in X-vivo 15 medium for experiments.
# as §1
# (§2) For collecting cell images, a Laser Scanning Confocal Imaging System MRC-1024 (Bio-Rad) was used. Cells in chambered cover glass were prepared by following the preparation procedure described above. The 442 nm line of a HeCd laser was used as the excitation light source. Emission was collected by using two filters: 485/30 for the N* band and 585LP for the T* band. Collected images were analyzed by the Amira 3.0 software.
# Two-color confocal fluorescence microscopy of CEM T cells stained with F2N12S was performed. Emission light was collected in two spectral regions: at 470-500 nm to monitor the emission of the N* band and above 585 nm to collect the emission of the T* band. Ratiometric images were obtained by dividing the intensity of the T* band by the intensity of the N* band and were used to monitor the cell plasma membrane changes induced by addition of actinomycin D (FIG. 5, a-c).
# T lymphocytes = assay: Laser scanning confocal ratiometric imaging of T lymphocytes; type: cell-based
# Protocol: FIG. 9: Laser scanning confocal imaging of T lymphocytes stained with annexin V-FITC (a) and F2N12S (b and c). Combination of transmission and fluorescence images of cells treated with actinomycin D for 18 hours (please complete this sentence). […] Due to their low binding to annexin V, normal cells are not visualized in the fluorescence images. (b and c) Ratiometric images of normal (b) and actinomycin D-treated (c) cells stained with 0.2 μM F2N12S. […] The size of the images is 60×73.1 μm.
# FIG. 10: Time-series of confocal fluorescence ratiometric images of actinomycin D-treated T lymphocytes stained with F2N12S. The cells were treated with actinomycin D for 18 hours and then, incubated with the probe (0.2 μM) for 5 min. Images were recorded at 1 min (a), 10 min (b) and 20 min (c) post incubation. […] The size of the images is 60×73.1 μm.
# as §2
# To further compare F2N12S and annexinV-derived probes, two-color ratiometric images of F2N12S-labeled cells undergoing apoptosis were recorded by laser scanning confocal microscopy and compared with intensity based images obtained using annexin V-FITC. […] Moreover, the fluorescence intensity of apoptotic cells varies considerably from cell to cell. These differences are difficult to interpret since the intensity depends on the probe concentration as well as on the size and confluence of the cells. […] According to our spectroscopy and flow cytometry data, the latter cells are apoptotic. […] Thus, unlike annexin V-FITC, these probes provide an absolute parameter, the intensity ratio, which can be calibrated, and can characterize the level of apoptosis independently of the probe/cell concentration and the excitation light intensity. In addition, the inventors have observed that in normal cells and cells on the initial steps of apoptosis, the T*/N* intensity ratio is not evenly distributed within the plasma membrane of a given cell. This may indicate an inhomogeneous lipid composition of their plasma membranes that is likely related to the presence of lipid domains.
# The inventors also follow apoptotic transformation of the plasma membrane as a function of time. Normal and actinomycin D-treated cells were stained with the corresponding probe and the fluorescence images were subsequently recorded during 20 min. […]
# [1] = Fluorescence properties of the probes (absorption maximum, band resolution); type: physicochemical
# Excerpt: The probe TCN12S is an analog of F2N12S and was synthesized to improve the fluorescence properties. Indeed, substitution of the 2-phenyl group with 2-thienyl shifts the absorption maximum from 420 nm to 445 nm, making this probe suitable for excitation with a He/Cd laser (442 nm). Moreover, the resolution between the two emission bands increases from 90 nm (F2N12S) to 120 nm (TCN12S), favoring two-color ratiometric detection.
# 3T3 fibroblasts = assay: Flow cytometry F2N12S intensity ratio in 3T3 fibroblasts; type: cell-based; details: data not shown
# Excerpt: The probe of the invention F2N12S has been combined with PI and the fluorescence intensities of PI have been represented as a function of the T*/N* ratio of F2N12S (FIG. 6c). In this case, the populations of apoptotic and dead cells are clearly discriminated by using the differences in the PI intensities. […] This conclusion was further strengthened when the populations discriminated by the F2N12S/PI couple were colored according to their response with the annexin V-FITC/PI couple (FIG. 6d).
# [2] = actinomycin D-treated cells not sorted by cytometry
substance,measurement,setting,value
"1-dodecanaminium, N-[[2-[4-Diethylaminophenyl]-3-hydroxychromon-6-yl]-methyl]-N-methyl-N-(3-sulfopropyl)-, inner salt [F2N12S]",time the probes stay in the plasma membrane (whole observation time),"L 929 cells; L 929 cells in HBSS buffer, limited by lifetime of the cells",approx. 1 hour
same,location of probe fluorescence in stained cells,"L 929 cells; adherent L 929 cells, images 10 min after probe addition, 585-700 nm",emission exclusively from the plasma membranes
same,"fluorescence intensity ratio T*/N*, apoptotic cells",CEM T cells; [2],~0.25
same,"fluorescence intensity ratio T*/N*, living cells",CEM T cells; [2],~1
same,fluorescence intensity ratio T*/N* at the plasma membrane,"CEM T cells; apoptotic cells obtained by cell sorting, average",around 0.25
same,"change in the T*/N* ratio, non-treated versus apoptotic cells",CEM T cells; confocal imaging,4 fold
same,fluorescence intensity ratio T*/N* at the plasma membrane,"CEM T cells; non-treated cells, N* 470-500 nm, T* above 585 nm",~1
same,time-dependent change of the fluorescence images,"T lymphocytes; actinomycin D-treated cells, images recorded during 20 min",relatively fast change in the emission color
same,which cells are stained in fluorescence images,T lymphocytes; normal and actinomycin D-treated cells,stains both normal (FIG. 9b) and apoptotic cells (FIG. 9c) but in different colors
same,absorption maximum,[1],420 nm
same,resolution between the two emission bands,[1],90 nm
same,F2N12S intensity ratio values compared with T lymphoblastoid cells,3T3 fibroblasts,very similar
